# From patent publication US7566717B2, “Substituted heterocyclic compounds” (Gilead Sciences, Inc., priority 2003, dated 2009)
# System: Rat heart mitochondria (palmitoyl CoA oxidation)
# Assay: Mitochondrial assay: palmitoyl CoA oxidation
# Type: biochemical
# Conditions: at 100 μM of test compound, 1-C14 palmitoyl CoA oxidation, 15 min at 30° C.
# Description: Rat heart mitochondria were isolated by the method of Nedergard and Cannon (Methods in Enzymol. 55, 3, 1979).
# Palmitoyl CoA oxidation—The Palmityl CoA oxidation was carried out in a total volume of 100 micro liters containing the following agents: 110 mM KCl, 33 mM Tris buffer at pH 8, 2 mM KPi, 2 mM MgCl2, 0.1 mM EDTA, 14.7 microM defatted BSA, 0.5 mM malic acid, 13 mM carnitine, 1 mM ADP, 52 micrograms of mitochondrial protein, and 16 microM 1-C14 palmitoyl CoA (Sp. Activity 60 mCi/mmole; 20 microCi/ml, using 5 microliters per assay). The compounds of this invention were added in a DMSO solution at the following concentrations: 100 micro molar, 30 micro molar, and 3 micro molar. In each assay, a DMSO control was used. After 15 min at 30° C., the enzymatic reaction was centrifuged (20,000 g for 1 min), and 70 microliters of the supernatant was added to an activated reverse phase silicic acid column (approximately 0.5 ml of silicic acid). The column was eluted with 2 ml of water, and 0.5 ml of the eluent was used for scintillation counting to determine the amount of C^14 trapped as C^14 bicarbonate ion.
row,SMILES,Inhibition [%]
1,"Cc1cccc(C)c1NC(=O)CN1CCN(CC(O)CC(=O)Nc2ccccc2F)CC1 (stereo not drawn) [4-(4-{[N-(2,6-dimethylphenyl)carbamoyl]methyl}piperazinyl)-3-hydroxy-N-(2-fluorophenyl)butanamide]",36
2,"Cc1cccc(C)c1NC(=O)CN1CCN(CC(O)CC2CCCCC2)CC1 (stereo not drawn) [N-(2,6-dimethylphenyl)-2-[4-(3-cyclohexyl-2-hydroxypropyl)piperazinyl]acetamide]",8
3,"Cc1cccc(C)c1NC(=O)CN1CCN(CC(O)CNC(=O)c2ccccc2F)CC1 (stereo not drawn) [N-(2,6-dimethylphenyl)-2-(4-{3-[(2-fluorophenyl)carbonylamino]-2-hydroxypropyl}piperazinyl)acetamide]",24
